Laboratory results reported in ChEMBL document CHEMBL1145846, “Discovery of allosteric potentiators for the metabotropic glutamate 2 receptor: synthesis and subtype selectivity of N-(4-(2-methoxyphenoxy)phenyl)-N-(2,2,2- trifluoroethylsulfonyl)pyrid-3-ylmethylamine” (J Med Chem, 2003).

Assays:
[1] = target: T1, Metabotropic glutamate receptor 2 (Homo sapiens, UniProt Q14416); test: Effective concentration against Metabotropic glutamate receptor 2
[2] = target: Metabotropic glutamate receptor 3 (Homo sapiens, UniProt Q14832); test: Effective concentration against human cloned Metabotropic glutamate receptor 3
[3] = target: T1, Metabotropic glutamate receptor 2; test: Ability to displace [3H]LY-341,495 at glutamate-site on Metabotropic glutamate receptor 2; No significant displacement

T1 sequence (Q14416 whole entry): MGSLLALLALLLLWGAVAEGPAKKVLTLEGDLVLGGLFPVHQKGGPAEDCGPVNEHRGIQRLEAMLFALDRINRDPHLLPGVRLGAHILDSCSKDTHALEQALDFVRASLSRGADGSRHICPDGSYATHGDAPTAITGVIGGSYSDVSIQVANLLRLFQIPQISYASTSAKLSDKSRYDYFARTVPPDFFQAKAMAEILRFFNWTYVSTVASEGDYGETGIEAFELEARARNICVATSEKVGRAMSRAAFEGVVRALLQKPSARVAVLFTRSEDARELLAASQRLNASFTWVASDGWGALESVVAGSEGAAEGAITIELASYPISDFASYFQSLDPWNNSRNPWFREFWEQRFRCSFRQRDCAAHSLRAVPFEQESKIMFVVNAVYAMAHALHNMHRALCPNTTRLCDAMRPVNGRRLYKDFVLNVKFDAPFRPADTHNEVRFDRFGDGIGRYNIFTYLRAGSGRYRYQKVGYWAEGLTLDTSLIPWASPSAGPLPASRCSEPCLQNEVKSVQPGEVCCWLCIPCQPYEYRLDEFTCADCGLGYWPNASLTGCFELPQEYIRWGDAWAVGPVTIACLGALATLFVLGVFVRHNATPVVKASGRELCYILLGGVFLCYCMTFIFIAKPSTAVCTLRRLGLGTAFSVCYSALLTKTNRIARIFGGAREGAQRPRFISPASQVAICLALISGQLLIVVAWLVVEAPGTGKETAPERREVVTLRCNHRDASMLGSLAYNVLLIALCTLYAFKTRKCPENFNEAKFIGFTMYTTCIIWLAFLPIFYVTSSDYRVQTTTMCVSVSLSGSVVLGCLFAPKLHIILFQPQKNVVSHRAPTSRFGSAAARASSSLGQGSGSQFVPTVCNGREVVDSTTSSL
Metabotropic glutamate receptor 3, sequence (Q14832 whole entry): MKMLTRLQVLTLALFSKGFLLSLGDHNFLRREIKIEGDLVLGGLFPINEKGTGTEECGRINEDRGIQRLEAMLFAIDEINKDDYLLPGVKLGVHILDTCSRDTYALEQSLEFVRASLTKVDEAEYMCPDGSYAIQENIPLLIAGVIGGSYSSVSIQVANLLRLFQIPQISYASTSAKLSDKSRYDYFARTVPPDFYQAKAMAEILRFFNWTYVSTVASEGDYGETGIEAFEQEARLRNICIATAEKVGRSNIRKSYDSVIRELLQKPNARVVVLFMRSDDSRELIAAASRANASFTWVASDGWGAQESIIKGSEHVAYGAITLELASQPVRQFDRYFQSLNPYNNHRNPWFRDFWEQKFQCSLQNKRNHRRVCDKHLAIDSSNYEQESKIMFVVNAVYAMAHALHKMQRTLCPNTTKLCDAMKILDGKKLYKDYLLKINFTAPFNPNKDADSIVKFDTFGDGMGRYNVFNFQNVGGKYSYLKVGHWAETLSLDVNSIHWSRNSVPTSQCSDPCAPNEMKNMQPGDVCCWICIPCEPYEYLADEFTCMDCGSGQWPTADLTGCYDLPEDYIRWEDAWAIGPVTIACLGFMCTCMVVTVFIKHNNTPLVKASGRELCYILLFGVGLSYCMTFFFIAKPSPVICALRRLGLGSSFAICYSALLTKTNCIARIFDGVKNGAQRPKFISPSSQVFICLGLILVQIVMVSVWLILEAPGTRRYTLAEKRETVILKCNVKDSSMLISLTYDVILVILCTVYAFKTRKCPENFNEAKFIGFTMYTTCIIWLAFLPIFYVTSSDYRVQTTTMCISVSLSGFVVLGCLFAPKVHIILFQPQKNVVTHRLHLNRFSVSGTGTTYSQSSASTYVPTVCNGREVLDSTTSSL

Structure (SMILES): CCS(=O)(=O)N(Cc1cccnc1)c1ccc(Oc2ccccc2)cc1
- EC50 [1]: 1500 nM
- EC50 [2]: > 12500 nM

Structure (SMILES): COc1ccccc1Oc1ccc(N(Cc2cccnc2)S(=O)(=O)CC(F)(F)F)cc1
- EC50 [1]: 270 nM
- IC50 [3]: > 100000 nM
